Assay results reported in patent US20230391758A1, “MODIFIED BENZOFURAN-CARBOXAMIDES AS GLUCOSYLCERAMIDE SYNTHASE INHIBITORS” (MERCK SHARP & DOHME CORP., priority 2020, published 2023).

Target: GCS enzyme (glucosylceramide synthase) contained within Golgi preparations isolated from human A375 malignant melanoma skin cells (Homo sapiens (Human), UniProt Q16739)
Assay: UDP-Glo glucosylceramide synthase biochemical assay
Conditions: 1.5 μg crude golgi preparation from A375 cells; C6 ceramide and UDP-glucose at 2×Km; 20 h incubation at room temperature; UDP detected by luminescence
From the text: UDP-Glo™ Glucosylceramide Synthase Biochemical Assay
A UDP-Glo™ glucosylceramide synthase biochemical assay was utilized to evaluate the effect of test compounds on the activity of endogenous levels of GCS enzyme contained within Golgi preparations isolated from human A375 malignant melanoma skin cells. The UDP-Glo™ glucosylceramide synthase assay uses UDP-Glucose as a nucleotide-glycosyl donor and ceramide as substrate acceptor molecules. In the reaction, glucosylceramide synthase (GCS) transfers glucose from UDP-Glucose to ceramide. Glucosylceramide and UDP are released as products.
Using Promega's UDP-Glo™ Glycosyltransferase assay kit (Promega Corporation, Madison, WI, USA (Promega)), GCS activity was indirectly measured by detecting the amount of UDP produced. An aliquot of GCS enzyme (1.5 μg crude golgi preparation, total protein) and titrated test compound were aliquoted to each well and incubated for 30 minutes at room temperature. Substrate mixture was prepared by mixing C6 ceramide (Avanti Polar Lipids, Alabaster, AL USA (Avanti)) (micelles prepared at 0.6 mM in 0.6 mM DOPC) and UDP-glucose (20 μ.M; Promega), at concentrations equivalent to 2×Km, in assay buffer (25 mM HEPES (pH 7.5), 50 mM KCl, 5 mM MgCl2). An equivalent volume of substrate mixture was then added to each well. Following a 20 h incubation at room temperature to allow for GCS turnover of substrate, an equal volume of UDP detection reagent (Promega) was added to each well and incubated for an additional 75 minutes at room temperature to simultaneously convert the accumulated UDP product into ATP and generate light in a luciferase reaction. The generated light was detected using a luminometer. […] luminescence values (RLUs) were normalized to mean “min” and “max” effects, as determined on each plate. “Min” was defined as the mean of the values of the wells treated with vehicle (DMSO) and which represent 0% inhibition; “max” was defined as the mean of the values of the wells treated with a reference inhibitor and which represent the 100% effect. Values for % Emax and EC50 were determined by best-fitting the normalized data to a curve in Activity Base along a four-parameter logistic nonlinear regression (4PL) model (based on the Levenberg-Marquardt algorithm and defined by the equation below): […]
where: n is 4PMin (bottom of the curve); m is 4PMax (top of the curve); i is IP (inflection point of curve); and p is slope. See Levenberg, K., “A Method for the Solution of Certain Problems in Least Squares”, Quart. Appl. Math. 2, (1944), pp 164-168 and Marquardt, D., “An Algorithm for Least Squares Estimation on Nonlinear Parameters”, SIAM J. Appl. Math. 11, (1963) pp 431-441.

Chain of GCS enzyme (glucosylceramide synthase) contained within Golgi preparations isolated from human A375 malignant melanoma skin cells (Q16739 whole entry): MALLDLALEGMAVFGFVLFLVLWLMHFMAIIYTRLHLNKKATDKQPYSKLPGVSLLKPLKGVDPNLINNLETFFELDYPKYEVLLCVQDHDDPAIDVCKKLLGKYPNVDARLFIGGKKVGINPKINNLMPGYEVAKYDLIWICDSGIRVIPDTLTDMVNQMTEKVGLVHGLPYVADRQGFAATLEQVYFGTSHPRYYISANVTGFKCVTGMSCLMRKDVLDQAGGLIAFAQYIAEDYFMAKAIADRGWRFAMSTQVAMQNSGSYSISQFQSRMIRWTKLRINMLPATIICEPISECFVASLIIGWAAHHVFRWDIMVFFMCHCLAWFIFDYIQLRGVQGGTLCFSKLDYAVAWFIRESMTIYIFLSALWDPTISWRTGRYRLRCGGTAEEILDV

EC50 [nM] | SMILES
1.7 | CC(CO)C12CC(NC(=O)c3cc4cccc(-c5ccccc5OCC(F)(F)F)c4o3)(C1)C2 (racemic) [Compound 9, (R and S)-N-[3-(2-hydroxy-1-methyl-ethyl)-1-bicyclo[1.1.1]pentanyl]-7-[2-(2,2,2-trifluoroethoxy)phenyl] benzofuran-2-carboxamide]
0.48 | O=C(NC1CNCCC1(F)F)c1cc2cccc(-c3ccccc3OCC(F)(F)F)c2o1 (racemic) [Compound 14, (R and S)-N-(4,4-difluoro-3-piperidyl)-7-[2-(2,2,2-trifluoroethoxy)phenyl] benzofuran-2-carboxamide]
44 | O=C(NC1CNCCC1(F)F)c1nc2cccc(-c3ccccc3OCC(F)(F)F)c2o1 (racemic) [Compound 39, (R and S)-N-(4,4-difluoropiperidin-3-yl)-7-(2-(2,2,2-trifluoroethoxy)phenyl)benzo[d]oxazole-2-carboxamide]
1.7 | O=C(N[C@@H]1CNCC[C@H]1F)c1cc2cccc(-c3ccccc3OCC(F)(F)F)c2o1 (relative stereo) [Compound 15, N-(trans-4-fluoro-3-piperidyl)-7-[2-(2,2,2-trifluoroethoxy)phenyl] benzofuran-2-carboxamide]
140 | CCCOc1ccccc1-c1cccc2cc(C(=O)NC3CCNCC3(F)F)oc12 (single isomer, unassigned) [Compound 18, N-[(4R or 4S)-3,3-difluoro-4-piperidyl]-7-(2-propoxyphenyl)benzofuran-2-carboxamide]
1.4 | CCCOc1ccccc1-c1cccc2cc(C(=O)NC3CNCCC3(F)F)oc12 (single isomer, unassigned) [Compound 36, (R or S)-N-(4,4-difluoro-3-piperidyl)-7-(2-propoxyphenyl)benzofuran-2-carboxamide]
0.097 | COc1ccc(C#N)cc1-c1cccc2cc(C(=O)NC34CCC(O)(CC3)C4)oc12 [Compound 3, 7-(5-cyano-2-methoxy-phenyl)-N-(4-hydroxynorbornan-1-yl)benzofuran-2-carboxamide]
0.1 | N#Cc1ccc(OC(F)F)c(-c2cccc3cc(C(=O)NC45CCC(O)(CC4)C5)oc23)c1 [Compound 4, 7-[5-cyano-2-(difluoromethoxy)phenyl]-N-(4-hydroxynorbornan-1-yl)benzofuran-2-carboxamide]

Further lines, the compound ahead of its results:

SMILES | EC50 [nM]
O=C(NC1CN2CCC1CC2)c1cc2cc(Cl)cc(-c3ccccc3OCCF)c2o1 (racemic) [Compound 20, (R and S)-5-chloro-7-[2-(2-fluoroethoxy)phenyl]-N-quinuclidin-3-yl-benzofuran-2-carboxamide] | 0.02
CCCCOc1ccccc1-c1cccc2cc(C(=O)NC3CN4CCC3CC4)oc12 (racemic) [Compound 21, (R and S)-7-(2-butoxyphenyl)-N-quinuclidin-3-yl-benzofuran-2-carboxamide] | 0.021
CCCOc1ccccc1-c1cccc2cc(C(=O)NC3CN4CCC3CC4)oc12 (racemic) [Compound 23, (R and S)-7-(2-propoxyphenyl)-N-quinuclidin-3-yl-benzofuran-2-carboxamide] | 0.044
Cc1nn(C)c(C)c1-c1cccc2cc(C(=O)NC3CN4CCC3CC4)oc12 (racemic) [Compound 37, (R and S)-N-(quinuclidin-3-yl)-7-(1,3,5-trimethyl-1H-pyrazol-4-yl)benzofuran-2-carboxamide] | 2.4
O=C(N[C@H]1CC[C@H](CO)CC1)c1cc2cc(F)cc(-c3ccccc3OCC(F)(F)F)c2o1 [Compound 1, 5-fluoro-N-(trans-4-(hydroxymethyl)cyclohexyl)-7-(2-(2,2,2-trifluoroethoxy)phenyl) benzofuran-2-carboxamide] | 0.99
Cc1nn(C)c(C)c1-c1cccc2cc(C(=O)Nc3ccc4cnccc4n3)oc12 [Compound 2, N-(1,6-naphthyridin-2-yl)-7-(1,3,5-trimethylpyrazol-4-yl)benzofuran-2-carboxamide] | 0.065
